Source: PubChem BioAssay (NCI)
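A five-concentration, 48-hour dose response in 96-well plates underlies each endpoint, interpolated linearly between surrounding concentrations. GI50 is the concentration that inhibits growth by half. At the TGI there is no net growth.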

How the values were obtained:
Assay in all cases: growth of human tumour cells (NCI), 48 h
HOP-92 NSCLC = test system: HOP-92 NSCLC
MDA-MB-468 breast = test system: MDA-MB-468 breast
SNB-75 CNS = test system: SNB-75 CNS
OVCAR-4 ovarian = test system: OVCAR-4 ovarian
HL-60(TB) leukemia = test system: HL-60(TB) leukemia
MCF7 breast = test system: MCF7 breast
SN12C renal = test system: SN12C renal
NCI-H522 lung = test system: NCI-H522 lung
HS 578T breast = test system: HS 578T breast
MDA-MB-231 breast = test system: MDA-MB-231 breast
SK-MEL-5 melanoma = test system: SK-MEL-5 melanoma
BT-549 breast = test system: BT-549 breast
IGROV1 ovarian = test system: IGROV1 ovarian
T-47D breast = test system: T-47D breast
SR leukemia = test system: SR leukemia
PC-3 prostate = test system: PC-3 prostate
HCT-15 colon = test system: HCT-15 colon
MOLT-4 leukemia = test system: MOLT-4 leukemia
SK-MEL-28 melanoma = test system: SK-MEL-28 melanoma
SK-OV-3 ovarian = test system: SK-OV-3 ovarian
COLO 205 colon = test system: COLO 205 colon
ACHN renal = test system: ACHN renal
UACC-257 melanoma = test system: UACC-257 melanoma
NCI-H226 lung = test system: NCI-H226 lung
HCC-2998 colon = test system: HCC-2998 colon
U251 CNS = test system: U251 CNS
HOP-62 NSCLC = test system: HOP-62 NSCLC
MALME-3M melanoma = test system: MALME-3M melanoma
SF-295 CNS = test system: SF-295 CNS
EKVX NSCLC = test system: EKVX NSCLC
SK-MEL-2 melanoma = test system: SK-MEL-2 melanoma
UACC-62 melanoma = test system: UACC-62 melanoma
NCI-H23 lung = test system: NCI-H23 lung
CCRF-CEM leukemia = test system: CCRF-CEM leukemia
OVCAR-5 ovarian = test system: OVCAR-5 ovarian
NCI/ADR-RES ovarian = test system: NCI/ADR-RES ovarian
MDA-MB-435 = test system: MDA-MB-435
OVCAR-8 ovarian = test system: OVCAR-8 ovarian
SNB-19 CNS = test system: SNB-19 CNS
KM12 colon = test system: KM12 colon
786-0 renal = test system: 786-0 renal
M14 melanoma = test system: M14 melanoma
OVCAR-3 ovarian = test system: OVCAR-3 ovarian
HT29 colon = test system: HT29 colon
A498 renal = test system: A498 renal
SF-268 CNS = test system: SF-268 CNS
RPMI-8226 leukemia = test system: RPMI-8226 leukemia
TK-10 renal = test system: TK-10 renal
SF-539 CNS = test system: SF-539 CNS
K-562 leukemia = test system: K-562 leukemia
A549 NSCLC = test system: A549 NSCLC
UO-31 renal = test system: UO-31 renal
DU-145 prostate = test system: DU-145 prostate
CAKI-1 renal = test system: CAKI-1 renal
NCI-H460 lung = test system: NCI-H460 lung
HCT-116 colon = test system: HCT-116 colon
RXF 393 renal = test system: RXF 393 renal

Q: With CCCCCc1ccc(S(=O)(=O)Nc2cc(-c3csc(N(C)C(C)=O)n3)ccc2N2CCN(C)CC2)cc1 as the compound, how does the GI50 (HOP-92 NSCLC) read?
A: 1.71 µM

Q: What about the TGI (HOP-92 NSCLC) of the same compound?
A: 15.4 µM

Q: And the GI50 (MDA-MB-468 breast)?
A: 1.62 µM

Q: What about the TGI (MDA-MB-468 breast) of the same compound?
A: 7.5 µM

Q: And the GI50 (SNB-75 CNS)?
A: 3.6 µM

Q: What about the TGI (SNB-75 CNS) of the same compound?
A: 15 µM

Q: And the GI50 (OVCAR-4 ovarian)?
A: 2.22 µM

Q: And the TGI (OVCAR-4 ovarian)?
A: 29.8 µM

Q: What about the GI50 (HL-60(TB) leukemia) of the same compound?
A: 0.807 µM

Q: And the TGI (HL-60(TB) leukemia)?
A: 2.4 µM

Q: And the GI50 (MCF7 breast)?
A: 0.983 µM

Q: And the TGI (MCF7 breast)?
A: 4.09 µM

Q: What about the GI50 (SN12C renal) of the same compound?
A: 3.73 µM

Q: And the TGI (SN12C renal)?
A: 28.1 µM

Q: What about the GI50 (NCI-H522 lung) of the same compound?
A: 5.51 µM

Q: And the TGI (NCI-H522 lung)?
A: 14.7 µM

Q: And the GI50 (HS 578T breast)?
A: 5.25 µM

Q: And the TGI (HS 578T breast)?
A: 35.1 µM

Q: And the GI50 (MDA-MB-231 breast)?
A: 1.81 µM

Q: What about the TGI (MDA-MB-231 breast) of the same compound?
A: 8.34 µM

Q: What about the GI50 (SK-MEL-5 melanoma) of the same compound?
A: 4.47 µM

Q: What about the TGI (SK-MEL-5 melanoma) of the same compound?
A: 16.9 µM

Q: And the GI50 (BT-549 breast)?
A: 9.72 µM

Q: What about the TGI (BT-549 breast) of the same compound?
A: > 35.5 µM

Q: What about the GI50 (IGROV1 ovarian) of the same compound?
A: 9.77 µM

Q: And the TGI (IGROV1 ovarian)?
A: > 35.5 µM

Q: And the GI50 (T-47D breast)?
A: 2.95 µM

Q: And the TGI (T-47D breast)?
A: > 35.5 µM

Q: And the GI50 (SR leukemia)?
A: 1.02 µM

Q: What about the TGI (SR leukemia) of the same compound?
A: 3.6 µM

Q: What about the GI50 (PC-3 prostate) of the same compound?
A: 2.2 µM

Q: And the TGI (PC-3 prostate)?
A: > 35.5 µM

Q: And the GI50 (HCT-15 colon)?
A: 1.04 µM

Q: What about the TGI (HCT-15 colon) of the same compound?
A: > 35.5 µM

Q: What about the GI50 (MOLT-4 leukemia) of the same compound?
A: 1.4 µM

Q: And the TGI (MOLT-4 leukemia)?
A: > 35.5 µM

Q: What about the GI50 (SK-MEL-28 melanoma) of the same compound?
A: 6.76 µM

Q: What about the TGI (SK-MEL-28 melanoma) of the same compound?
A: 19.7 µM

Q: And the GI50 (SK-OV-3 ovarian)?
A: 7.29 µM

Q: What about the TGI (SK-OV-3 ovarian) of the same compound?
A: 17.5 µM

Q: What about the GI50 (COLO 205 colon) of the same compound?
A: 0.626 µM

Q: And the TGI (COLO 205 colon)?
A: 1.27 µM

Q: And the GI50 (ACHN renal)?
A: 4.66 µM

Q: And the TGI (ACHN renal)?
A: > 35.5 µM

Q: What about the GI50 (UACC-257 melanoma) of the same compound?
A: 6.59 µM

Q: And the TGI (UACC-257 melanoma)?
A: 26.9 µM

Q: What about the GI50 (NCI-H226 lung) of the same compound?
A: 8.43 µM

Q: What about the TGI (NCI-H226 lung) of the same compound?
A: 33.2 µM

Q: What about the GI50 (HCC-2998 colon) of the same compound?
A: 1.25 µM

Q: And the TGI (HCC-2998 colon)?
A: 8.55 µM

Q: And the GI50 (U251 CNS)?
A: 7.43 µM

Q: What about the TGI (U251 CNS) of the same compound?
A: > 35.5 µM

Q: And the GI50 (HOP-62 NSCLC)?
A: 7.85 µM

Q: What about the TGI (HOP-62 NSCLC) of the same compound?
A: > 35.5 µM

Q: What about the GI50 (MALME-3M melanoma) of the same compound?
A: 5.26 µM

Q: What about the TGI (MALME-3M melanoma) of the same compound?
A: 19.7 µM

Q: What about the GI50 (SF-295 CNS) of the same compound?
A: 0.754 µM

Q: What about the TGI (SF-295 CNS) of the same compound?
A: 2.12 µM

Q: And the GI50 (EKVX NSCLC)?
A: 15.2 µM

Q: What about the TGI (EKVX NSCLC) of the same compound?
A: > 35.5 µM

Q: And the GI50 (SK-MEL-2 melanoma)?
A: 8.64 µM

Q: What about the TGI (SK-MEL-2 melanoma) of the same compound?
A: 30.2 µM

Q: What about the GI50 (UACC-62 melanoma) of the same compound?
A: 6.2 µM

Q: And the TGI (UACC-62 melanoma)?
A: 12.6 µM

Q: And the GI50 (NCI-H23 lung)?
A: 7.49 µM

Q: And the TGI (NCI-H23 lung)?
A: 31.7 µM

Q: What about the GI50 (CCRF-CEM leukemia) of the same compound?
A: 1.02 µM

Q: What about the TGI (CCRF-CEM leukemia) of the same compound?
A: 3.71 µM

Q: What about the GI50 (OVCAR-5 ovarian) of the same compound?
A: 16.5 µM

Q: And the TGI (OVCAR-5 ovarian)?
A: > 35.5 µM

Q: What about the GI50 (NCI/ADR-RES ovarian) of the same compound?
A: 5.75 µM

Q: What about the TGI (NCI/ADR-RES ovarian) of the same compound?
A: > 35.5 µM

Q: And the GI50 (MDA-MB-435)?
A: 2.02 µM

Q: What about the TGI (MDA-MB-435) of the same compound?
A: > 35.5 µM

Q: What about the GI50 (OVCAR-8 ovarian) of the same compound?
A: 10.2 µM

Q: And the TGI (OVCAR-8 ovarian)?
A: > 35.5 µM

Q: And the GI50 (SNB-19 CNS)?
A: 10.9 µM

Q: What about the TGI (SNB-19 CNS) of the same compound?
A: > 35.5 µM

Q: And the GI50 (KM12 colon)?
A: 3.61 µM

Q: What about the TGI (KM12 colon) of the same compound?
A: > 35.5 µM

Q: And the GI50 (786-0 renal)?
A: 2.29 µM

Q: What about the TGI (786-0 renal) of the same compound?
A: 30.8 µM

Q: What about the GI50 (M14 melanoma) of the same compound?
A: 3.93 µM

Q: What about the TGI (M14 melanoma) of the same compound?
A: > 35.5 µM

Q: What about the GI50 (OVCAR-3 ovarian) of the same compound?
A: 1.12 µM

Q: What about the TGI (OVCAR-3 ovarian) of the same compound?
A: 12.8 µM

Q: What about the GI50 (HT29 colon) of the same compound?
A: 1.13 µM

Q: What about the TGI (HT29 colon) of the same compound?
A: 3.66 µM

Q: What about the GI50 (A498 renal) of the same compound?
A: 9.21 µM

Q: What about the TGI (A498 renal) of the same compound?
A: > 35.5 µM

Q: What about the GI50 (SF-268 CNS) of the same compound?
A: 7.01 µM

Q: And the TGI (SF-268 CNS)?
A: > 35.5 µM

Q: What about the GI50 (RPMI-8226 leukemia) of the same compound?
A: 1.32 µM

Q: What about the TGI (RPMI-8226 leukemia) of the same compound?
A: > 35.5 µM

Q: What about the GI50 (TK-10 renal) of the same compound?
A: 7.43 µM

Q: And the TGI (TK-10 renal)?
A: 19.9 µM

Q: What about the GI50 (SF-539 CNS) of the same compound?
A: 1.21 µM

Q: And the TGI (SF-539 CNS)?
A: 4.59 µM

Q: And the GI50 (K-562 leukemia)?
A: 1.01 µM

Q: What about the TGI (K-562 leukemia) of the same compound?
A: > 35.5 µM

Q: And the GI50 (A549 NSCLC)?
A: 3.34 µM

Q: And the TGI (A549 NSCLC)?
A: > 35.5 µM

Q: And the GI50 (UO-31 renal)?
A: 5.42 µM

Q: What about the TGI (UO-31 renal) of the same compound?
A: > 35.5 µM

Q: What about the GI50 (DU-145 prostate) of the same compound?
A: 3.93 µM

Q: And the TGI (DU-145 prostate)?
A: > 35.5 µM

Q: And the GI50 (CAKI-1 renal)?
A: 1.86 µM

Q: And the TGI (CAKI-1 renal)?
A: 13.5 µM

Q: What about the TGI (NCI-H460 lung) of the same compound?
A: 11.1 µM

Q: And the GI50 (HCT-116 colon)?
A: 1.07 µM

Q: And the TGI (HCT-116 colon)?
A: 3.67 µM

Q: And the GI50 (RXF 393 renal)?
A: 2.11 µM

Q: And the TGI (RXF 393 renal)?
A: 17.9 µM
